# Where a name gives a salt, the structure may show the parent alone.
# Assays:
# aged rats [1] = assay: 17-arm radial maze testing of aged rats; format: in vivo, rat; conditions: 2 mg/kg 15 minutes prior to each daily trial, FIG. 4
# Source text: The 17 arm radial maze requires animals to remember a baited set of 8 arms out of the 17 total arms. At the start of each daily trial, rats are placed in the center of the maze and permitted to choose among the 17 arms until all 8 food rewards are taken or until fifteen minutes elapse. Those animals that reach a performance criteria of 17 arm choices on two consecutive days of testing during the first 14 days of testing are continued in testing for an additional 30 days. For such animals, only data collected after day 14 are used in the statistical analyses. Statistical analyses are done on 3 sets of data. The first is a measure of general learning: the percent correct choices (entries into baited arms) over the first 8 arm choices. The second is a measure of short term memory (working memory) calculated from the first 12 arm choices: the percent of choices into baited arms (containing food) over the total number of choices within the baited set. Working memory, an interatrial measure of short term memory, measured the rat's ability to remember which of the arms in the baited set were previously entered and the food reward taken. The third set of data measured long-term or reference memory and also was calculated from the first 12 arm choices. Reference memory, defined as an inter-trial measure, is the percent correct choices in the baited set over the total number of arm choices. […]
# aged rats [2] = assay: Lashley III maze testing of aged rats; format: in vivo, rat; conditions: aged animals, 2 mg/kg before training, first two blocks of tests, FIG. 5
# Source text: The Lashley III maze tests an animal's ability to learn a series of left-right alternation turns. Six alternation errors are possible for any given daily trial; chance performance level is 3 errors per trial. Previous studies have shown that young adult sham operated animals quickly learn to reduce their number of alternation errors to near zero by the end of the test period. By contrast, 23 months old (Aged) sham operated animals made substantially more errors over the 25 days of testing. […] Therefore, both age- and lesion-induced learning deficits were observed. Nonetheless, all groups did improve their performance over time.
# Aged animals injected with saline or DMAB-anabaseine were evaluated in the Lashley III maze (FIG. 5). […] This reflected an improvement in another memory-related behavior with this nicotine agonist.
# [3] = tested on: Male Sprague Dawley albino rats; assay: Passive avoidance behavior in nucleus basalis lesioned and unlesioned rats; format: in vivo, rat; conditions: for shift (increase) in potency by lesioning: lesioned vs unlesioned animals; for shift (increase) in potency by lesioning / potency in lesioned vs unlesioned animals: passive avoidance; for potency in lesioned vs unlesioned animals: FIGS. 1 and 2; for dose that interfered with training or behavior: after lesioning; for effective dose in passive avoidance behavior: i.p. 5 min before trial and testing
# Protocol: Male Sprague Dawley albino rats were used for all studies and were maintained in departmental animal facilities, using NIH guidelines for care of animals. Where lesioned animals were tested, lesions were induced in anesthetized animals by bilateral infusion of ibotenic acid (5 μg in 1 μl) or phosphate buffered saline (PBS) into the nucleus basalis region.
# For passive avoidance behavior, animals received a moderately strong shock (0.8 m Amp) for 1 second after entering a dark room. After 24 hours, the animals were again tested to determine if they could remember to stay out of the dark room. Animals were only allowed 5 minutes to make their choice, when they were removed from the lighted chamber. For testing the effects of drugs in animals that were not lesioned, shocks were only 0.5m Amp in intensity, and the animals were allowed 72 hours until they were tested after training. In all drug-treatment studies, the drugs were injected intraperitoneally in saline diluent 5 minutes before the trial and 5 minutes before the testing period.
# The effect of (−)anabaseine on passive avoidance was also determined using unlesioned animals (FIG. 3). In these experiments (−)anabaseine was injected intraperitoneally 5 min. before training and testing in the passive avoidance apparatus. Only animals that trained within 300 sec the first time were used (i.e., those animals that entered the dark compartment and received a mild foot shock).
# [4] = tested on: cerebral cortical synaptosomes; assay: Release of newly synthesized [3H]ACh from synaptosomes
# Source text: (§1) Neurotransmitter release from synaptosomes provides a potential marker for receptor-activity at different types of nerve terminals. Neurotransmitter release from intact slices or minces provides a marker for receptor activity at many sites on the neuron. A comparison of the effects of nicotine and other drugs on synaptosomes versus slices provides some idea as to the location of nicotinic receptors on different types of cerebral cortical neurons, as well as their cellular location.
# (§2) These different types of cerebral cortical transmitter systems have been tested. The first is the cholinergic; the procedures used to load cholinergic neurons or slices with newly synthesized [3H]ACh were described previously (Meyer, et al., 1987). The second is aspartate, an excitatory amino acid which, like glutamate, is associated with memory (long term potentiation) and neuropathology (e.g., stroke). The third type of neurotransmitter is GABA, which is the predominant transmitter in the cerebral cortex and is therefore very likely to receive cholinergic innervation.
# (§3) In order to measure aspartate or GABA release, tissues were incubated with 100 nM [3H] aspartate or 250 nM [3h] GABA in Krebs Ringer buffer at 37° C. for 30 minutes, then washed them in ice cold buffer. All release-incubations were at 37° C. for 15 minutes in the presence or absence of 50 mM KCl (depolarization). Radiation accumulation was also measured in slices in order to express the released levels of transmitter as % of total transmitter, since slices were somewhat variable with respect to accumulation of label. K+ induced release of transmitter was determined by subtracting the basal release from that in the presence of the elevated K+, such that only the incremental release was determined.
# (§4) Neurotransmitter levels (aspartate, glutamate) and enzyme levels were assayed as described by Arendash, et al., Science, 238:952, 1987. […] ACh from synaptosomes. Also, no effect was seen on the release of [3H] aspartate from isolated terminals.
# [5] = tested on: isolated terminals (synaptosomes) of cerebral cortex; assay: Release of [3H]aspartate from isolated terminals
# Source text: as §1, §2, §3, §4
# brain tissue slices = assay: Aspartate release from brain tissue slices; conditions: for aspartate release, dose relation: except at one low concentration, FIGS. 6 and 7
# Source text: as §2, §3
# The fact that nicotine […] without increasing basal release as well as K+ induced release is surprising. One hypothesis is that nicotine stimulates another type of neuron (presumably excitatory) to dis-inhibit the release of aspartate; this dis-inhibition would not be seen except when the aspartate neuron itself was activated by depolarization.
# cortical slices [6] = assay: [3H]ACh release from cortical slices
# Source text: as §2, §3
# This pattern was also observed with [3H]ACh release and [3H]GABA release from cortical slices. Nicotine (100 nM) increased the K+ induced release of ACh but reduced the K+induced GABA release from slices, while anabaseine (1 μM) had no effect on either process. […] Thus, it appears that the ability of nicotinic types of compounds to modulate neurotransmitter release is not mediated through one of the receptors with high affinity for anabaseine, or DMAB-anabaseine.
# cortical slices [7] = assay: [3H]GABA release from cortical slices
# Source text: as §2, §3
# This pattern was also observed with [3H]ACh release and [3H]GABA release from cortical slices. […]
# [8] = Water solubility (observation during synthesis); format: physicochemical
# Protocol: The lithium enolate of 3nicotinoyl2-piperidone (4.94w) of step 1 was added slowly to a round bottom flask containing 30 mL of concentrated HCl which was chilled in an ice bath and stirred. The enolate was not readily soluble. The reaction mixture was heated at reflux under nitrogen overnight to effect the hydrolysis and decarboxylation. […] The reaction should not be diluted with too much aqueous acid or the product will not crystallize during the work up.
# [9] = tested on: vertebrate neuromuscular nicotinic acetylcholine receptors; conditions: Kem, Amer.Zoologist, 25:99, 1985; cited from earlier work
# vertebrate neuromuscular nicotinic acetylcholine receptors, sequence (P02708 21-457): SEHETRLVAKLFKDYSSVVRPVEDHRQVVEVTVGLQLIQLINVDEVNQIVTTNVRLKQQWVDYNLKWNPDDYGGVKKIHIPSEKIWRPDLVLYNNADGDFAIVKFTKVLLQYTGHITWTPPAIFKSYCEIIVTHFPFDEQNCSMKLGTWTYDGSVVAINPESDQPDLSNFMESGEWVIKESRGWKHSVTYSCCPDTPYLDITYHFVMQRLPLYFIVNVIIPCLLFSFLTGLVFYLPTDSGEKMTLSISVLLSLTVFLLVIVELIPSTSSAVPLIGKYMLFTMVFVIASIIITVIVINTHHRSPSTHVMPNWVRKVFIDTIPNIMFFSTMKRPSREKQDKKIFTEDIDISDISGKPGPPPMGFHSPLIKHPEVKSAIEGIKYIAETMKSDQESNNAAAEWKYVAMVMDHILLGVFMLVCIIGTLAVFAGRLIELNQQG
# vertebrate neuromuscular nicotinic acetylcholine receptors, sequence (P11230 24-501 partner): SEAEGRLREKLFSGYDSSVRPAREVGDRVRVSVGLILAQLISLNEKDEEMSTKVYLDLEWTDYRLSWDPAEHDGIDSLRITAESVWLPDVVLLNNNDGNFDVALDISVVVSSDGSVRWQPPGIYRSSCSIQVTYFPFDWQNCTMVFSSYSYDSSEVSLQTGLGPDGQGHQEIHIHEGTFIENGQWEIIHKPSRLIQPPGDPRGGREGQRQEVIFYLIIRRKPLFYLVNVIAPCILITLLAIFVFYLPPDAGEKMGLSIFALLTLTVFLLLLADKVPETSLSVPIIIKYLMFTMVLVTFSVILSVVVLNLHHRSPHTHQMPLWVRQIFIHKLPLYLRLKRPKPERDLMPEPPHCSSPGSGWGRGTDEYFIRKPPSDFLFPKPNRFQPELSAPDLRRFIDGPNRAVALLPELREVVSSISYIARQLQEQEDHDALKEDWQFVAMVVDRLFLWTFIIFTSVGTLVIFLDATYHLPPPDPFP
# vertebrate neuromuscular nicotinic acetylcholine receptors, sequence (Q07001 22-517 partner): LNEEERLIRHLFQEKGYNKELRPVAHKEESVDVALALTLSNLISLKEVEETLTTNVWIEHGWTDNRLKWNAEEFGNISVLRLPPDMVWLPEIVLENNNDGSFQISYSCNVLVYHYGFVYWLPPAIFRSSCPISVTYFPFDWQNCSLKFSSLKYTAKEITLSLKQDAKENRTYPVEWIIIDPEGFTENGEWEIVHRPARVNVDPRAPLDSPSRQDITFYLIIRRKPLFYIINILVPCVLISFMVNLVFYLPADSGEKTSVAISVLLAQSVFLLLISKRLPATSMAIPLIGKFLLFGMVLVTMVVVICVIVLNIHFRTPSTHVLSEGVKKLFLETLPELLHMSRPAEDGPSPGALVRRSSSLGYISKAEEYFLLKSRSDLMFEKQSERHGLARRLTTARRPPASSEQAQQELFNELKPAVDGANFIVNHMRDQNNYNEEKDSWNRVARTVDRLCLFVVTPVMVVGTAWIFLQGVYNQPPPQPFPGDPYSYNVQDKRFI
# [10] = even in animals with reduced neocortical cholinergic activity
Compound,"effect on passive avoidance (memory-related) behavior [3, 10]",shift (increase) in potency by lesioning [3],potency in lesioned vs unlesioned animals [3],50 mM KCl induced release of newly synthesized [3H]ACh [4],basal release of newly synthesized [3H]ACh [4],release of [3H]aspartate [5],"aspartate release, dose relation (brain tissue slices)",dose that interfered with training or behavior [3],also measured
"CN(C)c1ccc(C=C2CCCN=C2c2cccnc2)cc1 [DMAB-anabaseine, 3-[p-(dimethylamino)benzylidene]-3,4,5,6-tetrahydro-2,3′-bipyridine]",can improve this type of memory-related behavior,2-2.5 fold,more potent in lesioned then in unlesioned animals,no effect,no effect,no effect,did not increase aspartate release in a dose-related manner,–,measure of long term memory (aged rats [1]): improved; short term memory (aged rats [1]): without affecting; number of errors in the maze (aged rats [2]): reduced the number of errors
"CN1CCCC1c1cccnc1 (stereo not shown) [nicotine, reference compound]",–,–,–,no effect,no effect,no effect,–,0.2 mg/kg,"effective dose in passive avoidance behavior ([3]; nucleus basalis lesioned animals): 0.02 mg/kg; effective dose in passive avoidance behavior ([3]; unlesioned animals): 0.05 mg/kg; basal ACh release (cortical slices [6]): increased; K+ induced release of ACh (cortical slices [6]; 100 nM): increased; K+ induced GABA release (cortical slices [7]; 100 nM): reduced; K+ induced release of aspartate (brain tissue slices; 100 nM, FIG. 6): increased; spontaneous release of transmitter (aspartate) (brain tissue slices; 100 nM, FIG. 6): without affecting"
c1cncc(C2=NCCCC2)c1 [anabaseine dihydrochloride],–,–,–,–,–,–,–,–,water solubility [8]: very water soluble
"c1cncc(C2=NCCCC2)c1 [anabaseine, 2-(3-pyridyl)-3,4,5,6-tetrahydropyridine]",can improve this type of memory-related behavior,~2.5 fold,more potent in lesioned then in unlesioned animals,no effect,no effect,no effect,did not increase aspartate release in a dose-related manner,0.2 mg/kg,"effect on passive avoidance (memory-related) behavior ([3]; unlesioned animals, i.p. 5 min before training and testing (FIG. 3)): can improve this type of memory-related behavior; K+ induced release of ACh (cortical slices [6]; 1 μM): no effect; K+ induced GABA release (cortical slices [7]; 1 μM): no effect; activation of vertebrate neuromuscular nicotinic acetylcholine receptors [9]: potent activator"

# Reference: patent publication US6630491B1, “Use of nicotinic analogs for treatment of degenerative diseases of the nervous system” (priority 1991, dated 2003)
